What was measured:
[1] = system: confluent endothelial cells from bovine capillaries; assay: Predicted crossing of the blood-brain barrier (BBB); type: in vitro ADME; design: key: high; intermediate; low; conditions: 20 μM in upper compartment; filter with bovine capillary endothelial cells; 10-60 min
Method: The substances are incubated at 20 μM in the upper compartment of a double container, the upper compartment being separated from the lower compartment either solely by a polycarbonate filter or by the same filter covered with confluent endothelial cells from bovine capillaries. Evaluation of the permeability kinetics is carried out by means of LC-MS-MS quantification of the unchanged substance in the lower compartment after 10, 20, 30, 40 and 60 minutes.

[2] = Predicted metabolic stability, mouse hepatic microsomes; type: in vitro ADME; conditions: mouse hepatic microsomes 0.33 mg prot/ml; compound 10^-7 M; NADPH; 0-60 min
Method: (§1) The predicted metabolic stability is tested by incubation of the compounds at a concentration of 10^−7M in the presence of mouse, rat or human hepatic microsomes (0.33 mg of prot/ml). After addition of NADPH (nicotinamide adenine dinucleotide phosphate, reduced form), samples are taken at 0, 5, 15, 30 and 60 minutes. The enzymatic reaction is stopped using methanol (V/V). The protein is precipitated by centrifugation and the supernatant is analysed by LC-MS-MS.

[3] = Predicted metabolic stability, human hepatic microsomes; type: in vitro ADME; conditions: human hepatic microsomes 0.33 mg prot/ml; compound 10^-7 M; NADPH; 0-60 min
Method: as §1

ERK1 [4] = target: T1, ERK1 (Homo sapiens, UniProt P27361); assay: ERK1 phosphorylation ex vivo in pig brain tissues; type: biochemical; design: host or cells: recombinant protein added to pig brain tissue preparations; conditions: 3×10^-9 M
T1 sequence (P27361 whole entry, species assumed): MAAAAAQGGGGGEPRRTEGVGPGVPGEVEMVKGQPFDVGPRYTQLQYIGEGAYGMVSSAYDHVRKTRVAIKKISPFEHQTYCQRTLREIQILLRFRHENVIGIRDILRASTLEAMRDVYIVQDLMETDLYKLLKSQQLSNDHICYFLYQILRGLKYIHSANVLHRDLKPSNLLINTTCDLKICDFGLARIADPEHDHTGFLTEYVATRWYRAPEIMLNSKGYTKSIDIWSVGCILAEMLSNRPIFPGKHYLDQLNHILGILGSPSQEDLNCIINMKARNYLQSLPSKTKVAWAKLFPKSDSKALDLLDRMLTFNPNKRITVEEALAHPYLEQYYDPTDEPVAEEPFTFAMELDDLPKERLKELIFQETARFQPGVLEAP
Excerpt: (§2) The various brain structures are isolated, treated and suspended in a medium without phosphate, after inactivation of the phosphatases of the tissues. The tissues are cleared of their own ERK and p-ERK and placed in the presence of specific recombinant forms of ERK1, ERK2, p-ERK1 and p-ERK2.
(§3) The phosphorylation capacities are studied in the presence and absence of the compound of Example 1 by means of antibodies that allow evaluation of non-phosphorylated and phosphorylated ERK1 and ERK2. • 2. Results

[5] = system: tyrosine hydroxylase (TH) protein in the locus coeruleus (LC); assay: Induction of tyrosine hydroxylase in the locus coeruleus after i.p. injection; type: in vivo; conditions: i.p. 20 mg/kg, three days after single injection, Balb/C mouse; for amount of TH in LC section 1, relative to the mean value of the control group: LC section 1 (anterior-to-posterior)
Excerpt: A search is made among the compounds for those which are capable of bringing about an increase in the tyrosine hydroxylase (TH) protein in the locus coeruleus (LC) of the brain of the Balb/C mouse.
The animals used are male mice of the pure Balb/C strain (Charles River Laboratories) aged from 7 to 8 weeks at the time of treatment.
The mice are given a single injection, by the intraperitoneal route, of the compound under test, dissolved in 0.04M HCl solution (corresponding control: […]), if the compound is sufficiently soluble, or in olive oil 90%/DMSO 10% (corresponding control: olive oil 90%/DMSO 10%) for compounds that are insoluble in an aqueous medium.
Three days after the injection of each compound, all the animals are sacrificed by decapitation. The brains are removed and then frozen in liquid nitrogen and stored at −80° C.
Coronal sections 8 microns thick are taken along the posterior-anterior axis of the LC and fixed. The sections are transferred onto Immobilon-P membranes. The TH is measured by immunodetection and image analysis.

ERK2 [6] = target: T2, ERK2 (Homo sapiens, UniProt P28482); assay: Biacore direct interaction with recombinant ERK2; type: binding
T2 sequence (P28482 whole entry, species assumed): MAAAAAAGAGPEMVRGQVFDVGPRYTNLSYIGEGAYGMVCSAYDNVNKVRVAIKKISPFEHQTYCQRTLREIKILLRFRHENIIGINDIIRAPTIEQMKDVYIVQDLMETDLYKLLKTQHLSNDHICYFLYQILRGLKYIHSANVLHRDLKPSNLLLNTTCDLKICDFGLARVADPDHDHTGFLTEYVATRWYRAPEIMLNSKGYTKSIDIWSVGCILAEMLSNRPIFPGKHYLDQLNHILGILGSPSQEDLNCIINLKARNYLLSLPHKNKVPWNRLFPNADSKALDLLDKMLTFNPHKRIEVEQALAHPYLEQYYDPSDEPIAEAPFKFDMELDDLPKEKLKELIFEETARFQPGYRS
Excerpt: (§4) Various forms of non-phosphorylated recombinant ERK (ERK1 and ERK2) and of phosphorylated recombinant ERK (p-ERK1 and p-ERK2) are fixed separately on “chips” and studied in the Biacore® system. The direct interaction of the compound of Example 1 at different concentrations is studied. • 2. Results

ERK2 [7] = target: T2, ERK2; assay: ERK2 phosphorylation ex vivo in pig brain tissues; type: biochemical; design: host or cells: recombinant protein added to pig brain tissue preparations; conditions: 3×10^-9 M
Excerpt: as §2, §3

ERK1 [8] = target: T1, ERK1; assay: Biacore direct interaction with recombinant ERK1; type: binding
Excerpt: as §4

[9] = Predicted metabolic stability, rat hepatic microsomes; type: in vitro ADME; conditions: rat hepatic microsomes 0.33 mg prot/ml; compound 10^-7 M; NADPH; 0-60 min
Method: as §1

[10] = pig brain prefrontal cortex ex vivo

% metabolic stability predicted using hepatic microsomes, Mouse [2] [%] | % metabolic stability predicted using hepatic microsomes, Human [3] [%] | % metabolic stability predicted using hepatic microsomes, Rat [9] [%] | Structure (SMILES) | amount of TH in LC section 1, relative to the mean value of the control group [5] [%] | amount of TH in LC section 2, relative to the mean value of the control group [5] [%] | amount of TH in LC section 3, relative to the mean value of the control group [5] [%] | amount of TH in LC section 4, relative to the mean value of the control group [5] [%] | amount of TH in LC section 5, relative to the mean value of the control group [5] [%] | amount of TH in LC section 6, relative to the mean value of the control group [5] [%] | amount of TH in LC section 7, relative to the mean value of the control group [5] [%] | amount of TH in LC section 8, relative to the mean value of the control group [5] [%] | also measured
84 | 82 | 89 | O=C(Nc1ccncc1)Nn1ccc2cc(Cl)ccc21 [Example 13, N-(5-chloro-1H-indol-1-yl)-N′-(4-pyridyl)urea] |  |  |  |  |  |  |  |  | 
72 | 67 | 69 | O=C(NCc1ccccn1)Nn1ccc2ccccc21 [Example 24, N-(1H-indol-1-yl)-N′-(2-pyridylmethyl)urea] | 74 | 78 | 68 | 45 | 29 | 19 | 5 | 7 | 

The remaining lines, values behind:

Structure (SMILES) | % metabolic stability predicted using hepatic microsomes, Mouse [2] [%] | % metabolic stability predicted using hepatic microsomes, Human [3] [%] | % metabolic stability predicted using hepatic microsomes, Rat [9] [%] | amount of TH in LC section 1, relative to the mean value of the control group [5] [%] | amount of TH in LC section 2, relative to the mean value of the control group [5] [%] | amount of TH in LC section 3, relative to the mean value of the control group [5] [%] | amount of TH in LC section 4, relative to the mean value of the control group [5] [%] | amount of TH in LC section 5, relative to the mean value of the control group [5] [%] | amount of TH in LC section 6, relative to the mean value of the control group [5] [%] | amount of TH in LC section 7, relative to the mean value of the control group [5] [%] | amount of TH in LC section 8, relative to the mean value of the control group [5] [%] | also measured
O=C(Nc1cccnc1)Nn1ccc2ccccc21 [Example 1, N-(1H-indol-1-yl)-N′-(3-pyridyl)urea] | 78 | 72 | 78 | 66 | 85 | 74 | 64 | 45 | 40 | 8 | 2 | degree of crossing of the BBB (category) [1]: high; phosphorylation of ERK1 in the hippocampus (ERK1 [4]; pig brain hippocampus ex vivo): increases; phosphorylation of ERK1 in the prefrontal cortex (ERK1 [4]; [10]): increases; binding to ERK2 (ERK2 [6]; non-phosphorylated recombinant ERK2 on chip, different concentrations): binds strongly; binding to ERK2 when the corresponding phosphorylated ERK is added to the medium (ERK2 [6]; p-ERK2 added to the medium): inhibited; phosphorylation of ERK2 in the hippocampus (ERK2 [7]; pig brain hippocampus ex vivo): increases; phosphorylation of ERK2 in the prefrontal cortex (ERK2 [7]; [10]): increases; phosphorylation of ERK2 in the striatum (ERK2 [7]; pig brain striatum ex vivo): increases; binding to ERK1 (ERK1 [8]; non-phosphorylated recombinant ERK1 on chip, different concentrations): binds strongly; binding to ERK1 when the corresponding phosphorylated ERK is added to the medium (ERK1 [8]; p-ERK1 added to the medium): inhibited
O=C(Nc1cccnc1)NN1CCc2ccccc21 [Example 2, N-(2,3-dihydro-1H-indol-1-yl)-N′-(3-pyridyl)urea] | 85 | 98 | 55 | 63 | 77 | 64 | 57 | 34 | 15 | 8 | 2 | 
O=C(Nc1ccncc1)Nn1ccc2ccccc21 [Example 6, N-(1H-indol-1-yl)-N′-(4-pyridyl)urea] | 77 | 77 | 73 | 65 | 81 | 59 | 33 | 20 | 13 | 8 | 2 | 
